Results from US20130115220A1, “METHOD FOR PREVENTION OR TREATMENT OF METABOLIC SYNDROME” (DAINIPPON SUMITOMO PHARMA CO., LTD., priority 2010, published 2013).

Target: T1, FAS (Mus musculus, UniProt P19096)
T1 construct: endogenous in cells; host or cells: 3T3-L1 adipocytes (treated cells, then lysed)
Assay: FAS enzyme activity of treated 3T3-L1 adipocytes
Format: cell-based
Conditions: 3T3-L1 cells, C75 25 μM, 6 days
Experimental: The influence of AIM on FAS activity of adipocyte or adipose tissue was examined. FAS activity was measured by the method of Kelley (Kelley et al., Biochem. J., 1986, 235:87-90) with slight modification. 3T3-L1 adipocytes, or lysates of adipose tissue of obese mice was mixed with acetyl-CoA and NADPH (0.2 M […] phosphate buffer [pH 7.0] containing 0.4 mM EDTA), and the mixture was placed in a spectrophotometer cuvette and maintained at 30° C. 20 μl of malonyl-CoA solution (0.2 mM) was added to start an enzyme reaction and decrease of OD was measured at a chart speed 2 cm/min. Based on the results, the enzyme activity of FAS was evaluated using the molar extinction coefficient of […] NADPH as 6220.
First, the FAS activity of 3T3-L1 cells treated for 6 days in the presence or absence of rAIM (5 μg/ml), and in the presence of C75 (25 μM) was measured. Moreover, the FAS activity of adipose tissues of AIM^+/+ mice and AIM^−/− mice and the FAS activity of adipose tissue of AIM^−/− mice administered with rAIM or BSA 3 hr before by intraadipose topical injection are shown in FIGS. 28 and 29, respectively.
All mice were fed with HFD for 20 weeks. The samples were dissolved (lysed) and the FAS activity was measured. The data was converted to that based on FAS protein, according to the results of WB performed using the same sample.

T1 sequence (P19096 whole entry): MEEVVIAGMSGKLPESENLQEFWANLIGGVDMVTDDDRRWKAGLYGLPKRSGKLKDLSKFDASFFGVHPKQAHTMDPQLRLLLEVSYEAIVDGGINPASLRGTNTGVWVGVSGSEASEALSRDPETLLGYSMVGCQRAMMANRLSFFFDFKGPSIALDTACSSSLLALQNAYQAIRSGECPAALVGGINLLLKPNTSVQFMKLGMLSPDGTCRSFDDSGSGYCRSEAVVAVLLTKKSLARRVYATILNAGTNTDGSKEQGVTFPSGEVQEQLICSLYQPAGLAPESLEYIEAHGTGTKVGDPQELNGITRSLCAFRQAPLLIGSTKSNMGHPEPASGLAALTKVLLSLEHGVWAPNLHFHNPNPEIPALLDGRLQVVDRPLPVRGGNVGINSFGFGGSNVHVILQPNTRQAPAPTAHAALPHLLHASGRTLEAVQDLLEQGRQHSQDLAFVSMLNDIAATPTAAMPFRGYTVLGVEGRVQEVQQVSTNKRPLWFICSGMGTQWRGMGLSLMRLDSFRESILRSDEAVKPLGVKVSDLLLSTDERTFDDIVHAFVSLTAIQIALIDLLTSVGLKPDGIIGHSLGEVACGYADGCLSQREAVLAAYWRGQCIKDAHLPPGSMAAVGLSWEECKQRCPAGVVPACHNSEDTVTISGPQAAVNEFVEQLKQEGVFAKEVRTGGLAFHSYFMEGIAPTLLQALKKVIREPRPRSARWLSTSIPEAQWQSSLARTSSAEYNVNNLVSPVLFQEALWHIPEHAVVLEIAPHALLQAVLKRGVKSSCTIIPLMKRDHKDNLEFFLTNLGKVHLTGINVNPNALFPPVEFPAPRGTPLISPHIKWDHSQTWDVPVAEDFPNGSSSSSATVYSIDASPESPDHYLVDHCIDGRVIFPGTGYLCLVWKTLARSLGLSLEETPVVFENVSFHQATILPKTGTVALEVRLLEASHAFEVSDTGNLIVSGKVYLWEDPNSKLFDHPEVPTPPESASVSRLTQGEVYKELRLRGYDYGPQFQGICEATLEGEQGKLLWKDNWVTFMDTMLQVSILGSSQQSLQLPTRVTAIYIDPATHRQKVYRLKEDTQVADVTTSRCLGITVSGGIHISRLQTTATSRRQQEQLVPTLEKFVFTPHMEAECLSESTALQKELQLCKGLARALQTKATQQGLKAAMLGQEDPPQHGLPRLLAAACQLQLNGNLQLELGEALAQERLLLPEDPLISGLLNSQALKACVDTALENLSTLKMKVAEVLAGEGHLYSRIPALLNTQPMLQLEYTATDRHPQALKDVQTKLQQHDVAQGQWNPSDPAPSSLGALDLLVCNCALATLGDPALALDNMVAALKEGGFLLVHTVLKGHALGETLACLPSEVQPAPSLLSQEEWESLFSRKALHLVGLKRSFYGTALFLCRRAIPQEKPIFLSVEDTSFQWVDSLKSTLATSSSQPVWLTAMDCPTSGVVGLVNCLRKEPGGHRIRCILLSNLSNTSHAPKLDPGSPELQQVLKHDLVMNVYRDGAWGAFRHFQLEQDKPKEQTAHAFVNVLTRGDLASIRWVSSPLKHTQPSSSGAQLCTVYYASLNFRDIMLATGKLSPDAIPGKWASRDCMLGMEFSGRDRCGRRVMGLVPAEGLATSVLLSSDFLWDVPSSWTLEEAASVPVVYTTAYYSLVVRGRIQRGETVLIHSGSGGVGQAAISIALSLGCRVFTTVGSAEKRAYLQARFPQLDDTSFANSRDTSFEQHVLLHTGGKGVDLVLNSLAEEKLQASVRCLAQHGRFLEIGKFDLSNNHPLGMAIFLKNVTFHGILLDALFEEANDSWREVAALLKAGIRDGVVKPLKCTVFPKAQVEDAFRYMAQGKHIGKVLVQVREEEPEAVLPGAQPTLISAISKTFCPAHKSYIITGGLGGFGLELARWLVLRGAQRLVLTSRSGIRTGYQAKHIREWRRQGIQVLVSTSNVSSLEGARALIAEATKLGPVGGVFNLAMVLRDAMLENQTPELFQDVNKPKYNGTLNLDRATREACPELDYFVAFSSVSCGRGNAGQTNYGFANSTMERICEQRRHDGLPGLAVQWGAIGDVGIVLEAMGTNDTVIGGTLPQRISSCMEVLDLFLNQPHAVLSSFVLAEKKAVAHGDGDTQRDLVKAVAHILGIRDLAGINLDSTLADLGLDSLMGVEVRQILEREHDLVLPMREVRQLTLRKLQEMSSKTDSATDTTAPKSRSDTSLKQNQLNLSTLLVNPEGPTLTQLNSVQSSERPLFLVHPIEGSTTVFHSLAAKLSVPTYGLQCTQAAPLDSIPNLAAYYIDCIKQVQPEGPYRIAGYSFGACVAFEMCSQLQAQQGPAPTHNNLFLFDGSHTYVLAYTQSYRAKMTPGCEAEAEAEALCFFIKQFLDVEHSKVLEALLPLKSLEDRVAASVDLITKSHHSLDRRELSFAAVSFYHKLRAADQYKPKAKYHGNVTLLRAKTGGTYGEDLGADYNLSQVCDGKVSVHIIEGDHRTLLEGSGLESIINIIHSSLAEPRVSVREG

- FAS activity, level of suppression compared with rAIM: the same
SMILES: C=C1C(=O)OC(CCCCCCCC)C1C(=O)O (stereo not shown) [C75, reference compound]
